Test results taken from patent publication US20230040770A1, “HETEROCYCLIC COMPOUND AND USE THEREOF” (TAKEDA PHARMACEUTICAL COMPANY LIMITED, priority 2019, published 2023).

What was measured:
[1] = target: T1, human orexin type 2 receptor (Homo sapiens, UniProt O43614); assay: Measurement of orexin type 2 receptor agonist activity (calcium indicator fluorescence, CHO cells forcibly expressing human OX2 receptor); type: cell-based; settings: compound at 3 μM; 0% = DMSO, 100% = orexin A (human) 10 nM
T1 construct: expressed in transfected cells
T1 sequence (O43614 1-444): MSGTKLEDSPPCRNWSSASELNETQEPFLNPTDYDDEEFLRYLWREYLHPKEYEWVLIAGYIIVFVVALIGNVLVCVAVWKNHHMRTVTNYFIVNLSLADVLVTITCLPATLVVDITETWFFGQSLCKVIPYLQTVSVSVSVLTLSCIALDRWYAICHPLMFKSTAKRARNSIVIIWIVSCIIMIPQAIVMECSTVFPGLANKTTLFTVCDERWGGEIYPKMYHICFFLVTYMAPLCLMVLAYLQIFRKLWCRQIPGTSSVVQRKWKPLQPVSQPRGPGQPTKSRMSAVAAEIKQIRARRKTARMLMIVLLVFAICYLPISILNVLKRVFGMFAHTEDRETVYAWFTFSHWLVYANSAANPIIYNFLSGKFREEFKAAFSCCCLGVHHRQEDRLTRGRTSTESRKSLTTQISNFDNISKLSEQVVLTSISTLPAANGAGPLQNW
Outline: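 CHO-dhfr cells stably expressing human OX2R, loaded with Fluo-4 AM (30 min 37 °C, then 30 min RT), then given test compound. Calcium fluorescence read by FDSS over ~2 min. Activity (%) scaled from DMSO (0%) to 10 nM final orexin A (100%).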

[2] = system: cynomolgus monkeys; assay: Evaluation of wake-promoting effects in cynomolgus monkeys (EEG/EMG); type: in vivo, cynomolgus monkey; settings: Macaca fascicularis, time spent in wakefulness for 4 h after administration, read-out: Wakefulness time (% of vehicle treatment) (Mean); for response vs control in vivo at 0.1 mg/kg / response vs control in vivo at 0.3 mg/kg: sc; for response vs control in vivo at 0.1 mg/kg: 0.1 mg/kg s.c. at ZT12; for response vs control in vivo at 3 mg/kg: po, 3 mg/kg p.o. at ZT12; for response vs control in vivo at 0.3 mg/kg: 0.3 mg/kg s.c. at ZT12
Description: The wake-promoting effects were evaluated by measuring the electroencephalogram (EEG) and electromyogram (EMG) in cynomolgus monkeys. Under isoflurane anesthesia (1-5%, Pfizer Japan Inc., Tokyo, Japan), male cynomolgus monkeys (3-5 years old, Hamri Co., Ltd., Ibaraki, Japan) were surgically implanted with radio-telemetry transmitters (TL10M3-D70-EEE, Data Sciences International Inc., MN, USA). EEG electrodes were screwed into the skull at the parietal area. EMG electrodes were implanted on the cervical muscles. After the surgery, each monkey was given penicillin (100,000 units/head, i.m., Meiji Seika Pharma Co., Ltd., Tokyo, Japan), buprenorphine (0.02 mg/kg, i.m., Otsuka Pharmaceutical Co., Ltd., Tokyo, Japan) and prednisolone (1 mg/kg, s.c., Kyoritsu Seiyaku Co., Ltd., Tokyo, Japan) daily for one week. After at least a 1-month recovery period in home cages, the monkeys were habituated to the recording chamber placed in a soundproof room. EEG and EMG signals were recorded using the telemetry system (Dataquest ART software, Data Sciences International Inc., MN, USA) and the signals were analyzed using SleepSign software (Kissei Comtec Co., Ltd., Nagano, Japan). After confirming long sleep in dark phase in the experimental room, we used animals to examine the wake-promoting effect of compounds.
Oral test compounds (3 or 10 mg/kg) suspended in 0.5% methylcellulose aqueous solution, or vehicle (i.e., 0.5% methylcellulose aqueous solution) was administered orally (p.o.) to monkeys at zeitgeber time 12 (ZT12) in a volume of 5 mL/kg body weight in cross-over design or pre-post design (n=1-4). EEG and EMG recordings were performed for 4 h after the compound administration. The time spent in wakefulness for 4 h after administration (% of vehicle treatment) was calculated by using SleepSign.
Parenteral test compounds (0.1 or 0.3 mg/kg) dissolved in a mixed solution comprising 5% DMSO, 5% Cremophor EL, 20% PEG400 and 70% soluplus (1% (w/v)), or vehicle (i.e., a mixed solution comprising 5% DMSO, 5% Cremophor EL, 20% PEG400 and 70% soluplus (1% (w/v))) was administered subcutaneously (s.c.) to monkeys at ZT12 in a volume of 0.5 mL/kg body weight in a pre-post design (n=1-2). EEG and EMG recordings were performed for 4 h after the compound administration. The time spent in wakefulness for 4 h after administration (% of vehicle treatment) was calculated by using SleepSign.

[3] = Evaluation of microsome stability in human; type: in vitro ADME; settings: pH 7.4; in vitro intrinsic metabolic clearance; human liver microsomes 0.2 mg/mL, 1 μmol/L test compound, NADPH-generating system
Description: Human liver microsomes were purchased from Xenotech, LLC (Lenexa, Kans.). An incubation mixture consisted of microsomes in 50 mmol/L KH2PO4—K2HPO4 phosphate buffer (pH 7.4) and 1 μmol/L test compound. The concentration of microsomal protein was 0.2 mg/mL. An NADPH-generating system (5 mmol/L MgCl2, 5 mmol/L glucose-6-phosphate, 0.5 mmol/L beta-NADP+ and 1.5 unit/mL glucose-6-phosphate dehydrogenase) was added to the incubation mixture with a half volume of the reaction mixture to initiate the enzyme reaction. The reaction was terminated 15 and 30 minutes after the initiation of the reaction by mixing the reaction mixture with acetonitrile, followed by centrifugation at 2500 rpm for 10 min. The supernatant was subjected to LC/MS/MS analysis. The metabolic rate constant was calculated as the slope of the remaining rate-time plot. The in vitro intrinsic metabolic clearance was calculated by dividing initial metabolic rate constant by microsomal protein in the incubation mixture.

In the case of `CCS(=O)(=O)N[C@H]1[C@@H](F)CN(C(=O)N2CCC2)[C@H]1Cc1cccc(-c2cccc(C)c2)c1F` [Example 451, N-{(2S,3R,4S)-1-(azetidine-1-carbonyl)-4-fluoro-2-[(2-fluoro-3′-methyl[1,1′-biphenyl]-3-yl)methyl]pyrrolidin-3-yl}ethanesulfonamide], the “OX2R agonist activity (3 μM, %)” value [1] is reported as 82% and the response vs control in vivo at 0.1 mg/kg [2] is reported as 225%.

In the case of `CCS(=O)(=O)N[C@@H]1[C@H](Cc2cccc(-c3cccc(F)c3)c2F)N(C(=O)[C@H]2C[C@H](F)C2)CC1(F)F` [Example 225, N-[(2S,3R)-2-[(2,3′-difluoro[1,1′-biphenyl]-3-yl)methyl]-4,4-difluoro-1-((1r,3S)-3-fluorocyclobutane-1-carbonyl)pyrrolidin-3-yl]ethanesulfonamide], the microsomal CLint at 1 μmol/L [3] is reported as 60 µL/min/mg, the “OX2R agonist activity (3 μM, %)” value [1] is reported as 96% and the response vs control in vivo at 3 mg/kg [2] is reported as 318%.

With `CCS(=O)(=O)N[C@@H]1[C@H](Cc2cccc(-c3cc(F)cc(F)c3)c2F)N(C(=O)C(C)C)CC1(F)F` [Example 146, N-{(2S,3R)-4,4-difluoro-1-(2-methylpropanoyl)-2-[(2,3′,5′-trifluoro[1,1′-biphenyl]-3-yl)methyl]pyrrolidin-3-yl}ethanesulfonamide] the microsomal CLint at 1 μmol/L [3] was 83 µL/min/mg, the “OX2R agonist activity (3 μM, %)” value [1] was 92% and the response vs control in vivo at 3 mg/kg [2] was 426%.

For `CC(C)(O)C(=O)N1CC(F)(F)[C@H](NS(C)(=O)=O)[C@@H]1Cc1cccc(-c2cc(F)cc(F)c2)c1F` [Example 2, N-{(2S,3R)-4,4-difluoro-1-(2-hydroxy-2-methylpropanoyl)-2-[(2,3′,5′-trifluoro[1,1′-biphenyl]-3-yl)methyl]pyrrolidin-3-yl}methanesulfonamide], the microsomal CLint at 1 μmol/L [3] was 40 µL/min/mg, the “OX2R agonist activity (3 μM, %)” value [1] was 106% and the response vs control in vivo at 3 mg/kg [2] was 600%.

For `CCS(=O)(=O)N[C@@H]1[C@H](Cc2cccc(-c3cccc(F)c3)c2F)N(C(=O)C(C)C)CC1(F)F` [Example 94, N-[(2S,3R)-2-[(2,3′-difluoro[1,1′-biphenyl]-3-yl)methyl]-4,4-difluoro-1-(2-methylpropanoyl)pyrrolidin-3-yl]ethanesulfonamide], the microsomal CLint at 1 μmol/L [3] was 44 µL/min/mg, the “OX2R agonist activity (3 μM, %)” value [1] was 99% and the response vs control in vivo at 3 mg/kg [2] was 442%.

For `CCS(=O)(=O)N[C@@H]1[C@H](Cc2cccc(-c3cc(F)cc(F)c3)c2F)N(C(=O)[C@H]2C[C@@H](F)C2)CC1(F)F` [Example 380, N-{(2S,3R)-4,4-difluoro-1-((1s,3R)-3-fluorocyclobutane-1-carbonyl)-2-[(2,3′,5′-trifluoro[1,1′-biphenyl]-3-yl)methyl]pyrrolidin-3-yl}ethanesulfonamide], the microsomal CLint at 1 μmol/L [3] was 39 µL/min/mg, the “OX2R agonist activity (3 μM, %)” value [1] was 93% and the response vs control in vivo at 3 mg/kg [2] was 484%.

With `CN(C)S(=O)(=O)N[C@@H]1[C@H](Cc2cccc(-c3cc(F)cc(F)c3)c2F)N(C(=O)[C@H]2CCO2)CC1(F)F` [Example 542, N′-{(2S,3R)-4,4-difluoro-1-[(2R)-oxetane-2-carbonyl]-2-[(2,3′,5′-trifluoro[1,1′-biphenyl]-3-yl)methyl]pyrrolidin-3-yl}-N,N-dimethylsulfuric diamide] the “OX2R agonist activity (3 μM, %)” value [1] was 100% and the response vs control in vivo at 0.3 mg/kg [2] was 505%.

In the case of `CCS(=O)(=O)N[C@@H]1[C@H](Cc2cccc(-c3cccc(F)c3)c2F)N(C(=O)[C@H]2CCO2)CC1(F)F` [Example 1, N-[(2S,3R)-2-[(2,3′-difluoro[1,1′-biphenyl]-3-yl)methyl]-4,4-difluoro-1-((2R)-oxetane-2-carbonyl)pyrrolidin-3-yl]ethanesulfonamide], the microsomal CLint at 1 μmol/L [3] is reported as 75 µL/min/mg, the “OX2R agonist activity (3 μM, %)” value [1] is reported as 100% and the response vs control in vivo at 3 mg/kg [2] is reported as 234%.

With `CCS(=O)(=O)N[C@H]1[C@@H](F)CN(C(=O)N2CCC2)[C@H]1Cc1cccc(-c2cc(F)cc(F)c2)c1F` [Example 450, N-{(2S,3R,4S)-1-(azetidine-1-carbonyl)-4-fluoro-2-[(2,3′,5′-trifluoro[1,1′-biphenyl]-3-yl)methyl]pyrrolidin-3-yl}ethanesulfonamide] the “OX2R agonist activity (3 μM, %)” value [1] was 86% and the response vs control in vivo at 0.3 mg/kg [2] was 814%.

With `CS(=O)(=O)N[C@@H]1[C@H](Cc2cccc(-c3cc(F)cc(F)c3)c2F)N(C(=O)[C@H]2C[C@@H](F)C2)CC1(F)F` [Example 433, N-{(2S,3R)-4,4-difluoro-1-(3-fluorocyclobutane-1-carbonyl)-2-[(2,3′,5′-trifluoro[1,1′-biphenyl]-3-yl)methyl]pyrrolidin-3-yl}methanesulfonamide] the microsomal CLint at 1 μmol/L [3] was 16 µL/min/mg, the “OX2R agonist activity (3 μM, %)” value [1] was 101% and the response vs control in vivo at 3 mg/kg [2] was 727%.

With `CCS(=O)(=O)N[C@@H]1[C@H](Cc2cccc(-c3cc(F)cc(F)c3)c2F)N(C(=O)C(C)(C)O)CC1(F)F` [Example 3, N-{(2S,3R)-4,4-difluoro-1-(2-hydroxy-2-methylpropanoyl)-2-[(2,3′,5′-trifluoro[1,1′-biphenyl]-3-yl)methyl]pyrrolidin-3-yl}ethanesulfonamide] the “OX2R agonist activity (3 μM, %)” value [1] was 106% and the response vs control in vivo at 3 mg/kg [2] was 613%.

With `Cc1cccc(-c2cccc(C[C@H]3[C@@H](NS(=O)(=O)N(C)C)[C@@H](F)CN3C(=O)N(C)C)c2F)c1` [Example 459, (2S,3R,4S)-3-[(dimethylsulfamoyl)amino]-4-fluoro-2-[(2-fluoro-3′-methyl[1,1′-biphenyl]-3-yl)methyl]-N,N-dimethylpyrrolidine-1-carboxamide] the “OX2R agonist activity (3 μM, %)” value [1] was 78% and the response vs control in vivo at 0.3 mg/kg [2] was 431%.

With `Cc1cccc(-c2cccc(C[C@H]3[C@@H](NS(=O)(=O)N(C)C)[C@@H](F)CN3C(=O)N3CCC3)c2F)c1` [Example 463, N′-{(2S,3R,4S)-1-(azetidine-1-carbonyl)-4-fluoro-2-[(2-fluoro-3′-methyl[1,1′-biphenyl]-3-yl)methyl]pyrrolidin-3-yl}-N,N-dimethylsulfuric diamide] the “OX2R agonist activity (3 μM, %)” value [1] was 79% and the response vs control in vivo at 0.1 mg/kg [2] was 483%.

In the case of `Cc1cccc(-c2cccc(C[C@H]3[C@@H](NS(=O)(=O)N(C)C)C(F)(F)CN3C(=O)N3CCC3)c2F)c1` [Example 443, N′-{(2S,3R)-1-(azetidine-1-carbonyl)-4,4-difluoro-2-[(2-fluoro-3′-methyl[1,1′-biphenyl]-3-yl)methyl]pyrrolidin-3-yl}-N,N-dimethylsulfuric diamide], the “OX2R agonist activity (3 μM, %)” value [1] is reported as 90% and the response vs control in vivo at 0.1 mg/kg [2] is reported as 532%.
